SMILES strings stand for the structures. Converted amounts (≈) assume the structure as drawn.

A word on the MIC: it is the smallest concentration in the dilution series that meets the test's criterion for growth inhibition.

The subject of this test is M. catarrhalis A894. Put plainly: MIC determination by microdilution in cation-adjusted Mueller-Hinton Broth (CLSI M7-A7). Type of test: cell-based. The following applies: Moraxella catarrhalis, A894, microdilution method. How it is done:
Minimal inhibitory concentrations (MICs, in mg/l) were determined in cation-adjusted Mueller-Hinton Broth by a microdilution method following the description given in “Methods for Dilution Antimicrobial Susceptibility Tests for Bacteria that Grow Aerobically”, Approved standard, 7th ed., Clinical and Laboratory Standards Institute (CLSI) Document M7-A7, Wayne, Pa., USA, 2006. All Example compounds were tested against several Gram-positive and Gram-negative bacteria.
(Dilution methods test growth across graded concentrations, often in twofold steps.)
In turn, `O=C1CSc2ccc(N3C[C@@H](CNCC4Cn5c(=O)ccc6nccc(c65)O4)OC3=O)cc2N1` (mixture of isomers) [Example 1, 2-(RS)-({[(R)-2-oxo-3-(3-oxo-3,4-dihydro-2H-benzo[1,4]thiazin-6-yl)-oxazolidin-5-ylmethyl]-amino}-methyl)-2,3-dihydro-1-oxa-3a,7-diaza-phenalen-4-one] yielded an MIC of at most 0.063 µg/mL.

For the compound `O=C1COc2ccc(N3C[C@@H](CNCC4Cn5c(=O)ccc6nccc(c65)O4)OC3=O)cc2N1` (mixture of isomers) [Example 2, 2-(RS)-({[(R)-2-oxo-3-(3-oxo-3,4-dihydro-2H-benzo[1,4]oxazin-6-yl)-oxazolidin-5-ylmethyl]-amino}-methyl)-2,3-dihydro-1-oxa-3a,7-diaza-phenalen-4-one], the MIC was determined as 0.5 µg/mL.

`O=C1CSc2ccc(N3C[C@@H](CNCC4Cc5c(F)ccc6ccc(=O)n(c56)C4)OC3=O)cc2N1` (mixture of isomers) [Example 3, (6RS)-8-fluoro-6-({[(R)-2-oxo-3-(3-oxo-3,4-dihydro-2H-benzo[1,4]thiazin-6-yl)-oxazolidin-5-ylmethyl]-amino}-methyl)-6,7-dihydro-5H-pyrido[3,2,1-ij]quinolin-3-one] displayed an MIC of at most 0.063 µg/mL.

The compound `O=C1COc2ccc(N3C[C@@H](CNCC4Cc5c(F)ccc6ccc(=O)n(c56)C4)OC3=O)cc2N1` (mixture of isomers) [Example 4, (6RS)-8-fluoro-6-({[(R)-2-oxo-3-(3-oxo-3,4-dihydro-2H-benzo[1,4]oxazin-6-yl)-oxazolidin-5-ylmethyl]-amino}-methyl)-6,7-dihydro-5H-pyrido[3,2,1-ij]quinolin-3-one] had an MIC of at most 0.063 µg/mL.

Compound `O=C1O[C@H](CNCC2Cc3c(F)ccc4ccc(=O)n(c34)C2)CN1c1ccc2c(c1)OCCO2` (mixture of isomers) [Example 5, (6RS)-6-({[(R)-3-(2,3-dihydro-benzo[1,4]dioxin-6-yl)-2-oxo-oxazolidin-5-ylmethyl]-amino}-methyl)-8-fluoro-6,7-dihydro-5H-pyrido[3,2,1-ij]quinolin-3-one] had an MIC of at most 0.063 µg/mL.

`O=C1CSc2ccc(N3C[C@@H](CNCC4Cc5c(F)ccc6ccc(=O)n4c56)OC3=O)cc2N1` (mixture of isomers) [Example 9, (RS)-9-fluoro-2-({[(R)-2-oxo-3-(3-oxo-3,4-dihydro-2H-benzo[1,4]thiazin-6-yl)-oxazolidin-5-ylmethyl]-amino}-methyl)-1,2-dihydro-pyrrolo[3,2,1-ij]quinolin-4-one]: the MIC was at most 0.063 µg/mL.

Take `O=C1CSc2ccc(N3CC(CCNC[C@H]4Cc5c(F)ccc6ccc(=O)n4c56)OC3=O)cc2N1` (mixture of isomers) [Example 10, (R)-9-fluoro-2-({2-[(RS)-2-oxo-3-(3-oxo-3,4-dihydro-2H-benzo[1,4]thiazin-6-yl)-oxazolidin-5-yl]-ethylamino}-methyl)-1,2-dihydropyrrolo[3,2,1-ij]quinolin-4-one]: the minimum inhibitory concentration (MIC) was at most 0.063 µg/mL.

In turn, `O=C1CSc2ccc(N3C[C@@H](CNCC4Cn5c(=O)ccc6cccc(c65)O4)OC3=O)cc2N1` (mixture of isomers) [Example 11, (RS)-2-({[(R)-2-oxo-3-(3-oxo-3,4-dihydro-2H-benzo[1,4]thiazin-6-yl)-oxazolidin-5-ylmethyl]-amino}-methyl)-2,3-dihydro-1-oxa-3a-aza-phenalen-4-one] had a minimal inhibitory concentration (MIC) of at most 0.063 µg/mL.

In the case of `O=C1CSc2ccc(N3C[C@@H](CNCC4Cn5c(=O)ccc6ccc(F)c(c65)O4)OC3=O)cc2N1` (mixture of isomers) [Example 12, (RS)-9-fluoro-2-({[(R)-2-oxo-3-(3-oxo-3,4-dihydro-2H-benzo[1,4]thiazin-6-yl)-oxazolidin-5-ylmethyl]-amino}-methyl)-2,3-dihydro-1-oxa-3a-aza-phenalen-4-one], the MIC is at most 0.063 µg/mL.

Take `O=C1CSc2ccc(N3C[C@@H](CNCC4Cc5c(F)cnc6ccc(=O)n(c56)C4)OC3=O)cc2N1` (mixture of isomers) [Example 13, (RS)-3-fluoro-5-({[(R)-2-oxo-3-(3-oxo-3,4-dihydro-2H-benzo[1,4]thiazin-6-yl)-oxazolidin-5-ylmethyl]-amino}-methyl)-5,6-dihydro-4H-1,6a-diaza-phenalen-7-one]: the MIC was at most 0.063 µg/mL.

In turn, `O=C1COc2ccc(N3C[C@@H](CNCC4Cc5c(F)cnc6ccc(=O)n(c56)C4)OC3=O)cc2N1` (mixture of isomers) [Example 14, (RS)-3-fluoro-5-({[(R)-2-oxo-3-(3-oxo-3,4-dihydro-2H-benzo[1,4]oxazin-6-yl)-oxazolidin-5-ylmethyl]-amino}-methyl)-5,6-dihydro-4H-1,6a-diaza-phenalen-7-one] displayed a minimal inhibitory concentration (MIC) of at most 0.063 µg/mL.

`O=C1CSc2ccc(N3C[C@@H](CCNCC4Cc5c(F)cnc6ccc(=O)n4c56)OC3=O)cc2N1` (mixture of isomers) [Example 15, (RS)-3-fluoro-5-({2-[(R)-2-oxo-3-(3-oxo-3,4-dihydro-2H-benzo[1,4]thiazin-6-yl)-oxazolidin-5-yl]-ethylamino}-methyl)-4,5-dihydropyrrolo[3,2,1-de][1,5]naphthyridin-7-one] returned an MIC of at most 0.063 µg/mL.

Turning to `O=C1COc2ccc(N3C[C@@H](CCNCC4Cc5c(F)ccc6ccc(=O)n4c56)OC3=O)cc2N1` (mixture of isomers) [Example 21, (RS)-9-fluoro-2-({2-[(R)-2-oxo-3-(3-oxo-3,4-dihydro-2H-benzo[1,4]oxazin-6-yl)-oxazolidin-5-yl]-ethylamino}-methyl)-1,2-dihydropyrrolo[3,2,1-ij]quinolin-4-one], the MIC is at most 0.063 µg/mL.

`O=C1COc2ccc(N3C[C@H](CCNCC4Cc5c(F)ccc6ccc(=O)n4c56)OC3=O)cc2N1` (mixture of isomers) [Example 22, (RS)-9-fluoro-2-({2-[(S)-2-oxo-3-(3-oxo-3,4-dihydro-2H-benzo[1,4]oxazin-6-yl)-oxazolidin-5-yl]-ethylamino}-methyl)-1,2-dihydropyrrolo[3,2,1-ij]quinolin-4-one] showed a minimum inhibitory concentration (MIC) of at most 0.063 µg/mL.

`O=C1COc2ccc(N3C[C@@H](CCNCC4Cc5c(F)ccc6c5N4C(=O)CC6)OC3=O)cc2N1` (mixture of isomers) [Example 23, (RS)-9-fluoro-2-({2-[(R)-2-oxo-3-(3-oxo-3,4-dihydro-2H-benzo[1,4]oxazin-6-yl)-oxazolidin-5-yl]-ethylamino}-methyl)-1,2,5,6-tetrahydropyrrolo[3,2,1-ij]quinolin-4-one]: the MIC is at most 0.063 µg/mL.

`O=C1CSc2ccc(N3C[C@@H](CCNCC4Cc5ccnc6ccc(=O)n4c56)OC3=O)cc2N1` (mixture of isomers) [Example 24, (RS)-5-({2-[(R)-2-oxo-3-(3-oxo-3,4-dihydro-2H-benzo[1,4]thiazin-6-yl)-oxazolidin-5-yl]-ethylamino}-methyl)-4,5-dihydro-pyrrolo[3,2,1-de][1,5]naphthyridin-7-one] returned an MIC of 2 µg/mL.

The compound `O=C1COc2ccc(N3C[C@H](CCNCC4Cc5ccnc6ccc(=O)n4c56)OC3=O)cc2N1` (mixture of isomers) [Example 25, (RS)-5-({2-[(S)-2-oxo-3-(3-oxo-3,4-dihydro-2H-benzo[1,4]oxazin-6-yl)-oxazolidin-5-yl]-ethylamino}-methyl)-4,5-dihydro-pyrrolo[3,2,1-de][1,5]naphthyridin-7-one] displayed an MIC of 4 µg/mL.

In turn, `O=C1CSc2ccc(N3C[C@@H](CCNCC4Cc5cccc6ccc(=O)n4c56)OC3=O)cc2N1` (mixture of isomers) [Example 26, (RS)-2-({2-[(R)-2-oxo-3-(3-oxo-3,4-dihydro-2H-benzo[1,4]thiazin-6-yl)-oxazolidin-5-yl]-ethylamino}-methyl)-1,2-dihydro-pyrrolo[3,2,1-ij]quinolin-4-one] had an MIC of at most 0.063 µg/mL.

In the case of `O=C1COc2ccc(N3C[C@@H](CCNCC4Cc5cccc6ccc(=O)n4c56)OC3=O)cc2N1` (mixture of isomers) [Example 27, (RS)-2-({2-[(R)-2-oxo-3-(3-oxo-3,4-dihydro-2H-benzo[1,4]oxazin-6-yl)-oxazolidin-5-yl]-ethylamino}-methyl)-1,2-dihydro-pyrrolo[3,2,1-ij]quinolin-4-one], the MIC was at most 0.063 µg/mL.

As to `O=C1CSc2ccc(N3C[C@@H](CNCC4Cc5cccc6ccc(=O)n4c56)OC3=O)cc2N1` (mixture of isomers) [Example 28, (RS)-2-({[(R)-2-oxo-3-(3-oxo-3,4-dihydro-2H-benzo[1,4]thiazin-6-yl)-oxazolidin-5-ylmethyl]-amino}-methyl)-1,2-dihydro-pyrrolo[3,2,1-ij]quinolin-4-one], the MIC was at most 0.063 µg/mL.

As for `O=C1COc2ccc(N3C[C@H](CCNCC4Cc5cccc6ncc(=O)n4c56)OC3=O)nc2N1` (mixture of isomers) [Example 31, (RS)-5-({2-[(S)-2-oxo-3-(3-oxo-3,4-dihydro-2H-pyrido[3,2-b][1,4]oxazin-6-yl)-oxazolidin-5-yl]-ethylamino}-methyl)-5,6-dihydropyrrolo[1,2,3-de]quinoxalin-3-one], the MIC was at most 0.063 µg/mL.

Take `O=C1CSc2ccc(N3C[C@@H](CCN[C@@H]4Cc5c(F)ccc6ccc(=O)n(c56)C4)OC3=O)cc2N1` (racemic) [Example 7, (6RS)-8-fluoro-6-{2-[(RS)-2-oxo-3-(3-oxo-3,4-dihydro-2H-benzo[1,4]thiazin-6-yl)-oxazolidin-5-yl]-ethylamino}-6,7-dihydro-5H-pyrido[3,2,1-ij]quinolin-3-one]: the MIC is at most 0.063 µg/mL.

As for `O=C1CSc2ccc(N3C[C@@H](CNC[C@H]4Cc5c(F)ccc6ccc(=O)n4c56)OC3=O)cc2N1` [Example 6, (R)-9-fluoro-2-({[(R)-2-oxo-3-(3-oxo-3,4-dihydro-2H-benzo[1,4]thiazin-6-yl)-oxazolidin-5-ylmethyl]-amino}-methyl)-1,2-dihydro-pyrrolo[3,2,1-ij]quinolin-4-one], the MIC is at most 0.063 µg/mL.

The compound `O=C1COc2ccc(N3C[C@@H](CNC[C@H]4Cc5c(F)ccc6ccc(=O)n4c56)OC3=O)cc2N1` [Example 8, (R)-9-fluoro-2-({[(R)-2-oxo-3-(3-oxo-3,4-dihydro-2H-benzo[1,4]oxazin-6-yl)-oxazolidin-5-ylmethyl]-amino}-methyl)-1,2-dihydro-pyrrolo[3,2,1-ij]quinolin-4-one] displayed an MIC of 0.125 µg/mL (≈ 0.269 µM).

The values are drawn from patent publication US8349828B2, “Azatricyclic antibiotic compounds” (Actelion Pharmaceuticals Ltd., priority 2008, dated 2013).
